Results from patent publication US9187455B2, “Substituted pyridazines as PDE10A inhibitors” (Hoffmann-La Roche Inc., priority 2009, dated 2015).

Target: T1, PDE10A2 (Homo sapiens, UniProt Q9Y233)
T1 construct: residues serine 449 to aspartate 789; His6 (H6) with Gateway linker and thrombin cleavage site (N, cleaved yes); made in house; host or cells: E. coli BL21(DE3) pLysS
Assay: PDE10A2 Scintillation Proximity Assay (SPA), [3H]-cGMP hydrolysis
Format: biochemical
Settings: catalytic domain of human PDE10A2 (S449-D789), 0.25 nM enzyme, 50 nM cGMP + 50 nM [3H]-cGMP, 30 minutes at room temperature; read-out: PDE10A2 inhibition IC50
Experimental: The following tests were carried out in order to determine the activity of the compounds of the present invention. PDE10 activity of the compounds of the present invention is determined using a Scintillation Proximity Assay (SPA)-based method similar to the one previously described (Fawcett, L. et al., ProcNatl Acad Sci USA (2000) 97(7):3702-3707).
PDE10A1 and PDE10A2 are two splice variants of PDE10A. There are these 2 splice variants known, which differ in the N-terminal part of the protein. The catalytic domains of PDE10A1 and PDE10A2 are identical. The assay for PDE10A2 described below is therefore also representative for PDE10A1 and also for PDE10A in general.
The PDE10A2 assay was performed in a two step procedure in 96-well micro titer plates. The reaction mixture of 80 μl contained 20 mM HEPES/10 mM MgCl2/[…] (pH 7.5), 50 nM cGMP (Sigma) and 50 nM [^3H]-cGMP (GE Healthcare), 0.25 nM PDE10A2 with or without a specific test compound. A range of concentrations of the potential inhibitor was used to generate data for calculating the concentration of inhibitor resulting in 50% of the effect (e.g. IC50, the concentration of the competitor inhibiting PDE10A2 activity 50%). Non-specific activity was tested without the enzyme. The reaction was initiated by addition of the substrate solution (cGMP and [^3H]-cGMP) and allowed to progress for 30 minutes at room temperature. The reaction was terminated by transferring 50 μl of the reaction mixture into an OptiPlate (Perkin Elmer) containing 25 μl of YSi-SPA scintillation beads (GE Healthcare) in 18 mM zinc sulphate solution (stop reagent). After 1 h under shaking, the plate was centrifuged one minute at 1000 rpm to allow beads to settle. Afterwards, radioactive counts were measured on a Perkin Elmer TopCount Scintillation plate reader.
The catalytic domain of human PDE10A2, residues serine 449 to aspartate 789, was amplified by PCR using cDNA (Origene) and the oligonucleotides 5′-GGGGACAAGTTTGT […]-3′ (with AttB1 recombination site in bold and thrombin protease cleavage site in italics) and 5′-[…]-3′ (with AttB2 recombination site in bold) which conferred Gateway recombination sites. The PCR product was used in a BP recombination reaction with pDONR221 to generate pENTR Thm-PDE10A2(S449-D789) which was DNA sequence verified and then used in an LR recombination reaction with a Gateway modified version of pET11a. The resulting expression vector, placT7.2H6-(gwl)-Thm-PDE10A2(S449-D789) was DNA sequence confirmed and transformed into E. coli strain BL21(DE3) pLysS and recombinant protein was produced in TB medium at 20° C. by induction to a final IPTG concentration of 0.5 mM at an optical density of 1.0 at 600 nm for 20 hours. About 30% of the protein was in the soluble fraction of the cell homogenate. The protein was purified using sequential chromatography on Ni-NTA and HiTrapQ/HiTrapS. After thrombin digest at room temperature a HiTrapChelating/HiTrap Benzamindin chromatography removed impurities, uncleaved protein and thrombin. Final purification of PDE10A2(S449-D789) was performed on a Superdex 75 size exclusion chromatography equilibrated with 25 mM HEPES pH 8.4, 0.15 M NaCl. The yield of pure protein was 2 mg/liter of culture volume is relatively low. The purity of the protein was >95%, monomeric and monodisperse as shown by SDS-PAGE, HPLC and analytical ultracentrifugation.

T1 sequence (Q9Y233 715-1055): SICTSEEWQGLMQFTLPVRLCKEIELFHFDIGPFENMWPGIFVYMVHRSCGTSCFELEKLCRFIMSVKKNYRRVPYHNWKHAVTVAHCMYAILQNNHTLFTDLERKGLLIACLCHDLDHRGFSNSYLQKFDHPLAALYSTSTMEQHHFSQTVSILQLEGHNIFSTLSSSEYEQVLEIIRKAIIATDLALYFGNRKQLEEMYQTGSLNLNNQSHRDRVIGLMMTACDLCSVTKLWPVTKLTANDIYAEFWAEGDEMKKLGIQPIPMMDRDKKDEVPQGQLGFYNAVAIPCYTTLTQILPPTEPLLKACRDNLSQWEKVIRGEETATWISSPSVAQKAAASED

SMILES | IC50 [nM]
O=c1ccn(-c2cccnc2)nc1-c1ccnn1-c1cc(F)ccc1F [Example 47, 3-[2-(2,5-Difluoro-phenyl)-2H-pyrazol-3-yl]-1-pyridin-3-yl-1H-pyridazin-4-one] | 352
O=c1ccn(-c2cccnc2)nc1-c1ccnn1-c1ccnc2ccc(F)cc12 [Example 50, 3-[2-(6-Fluoro-quinolin-4-yl)-2H-pyrazol-3-yl]-1-pyridin-3-yl-1H-pyridazin-4-one] | 87
O=c1ccn(-c2ccnc(N3CCOCC3)c2)nc1-c1ccnn1-c1cccc(F)c1 [Example 42, 3-[2-(3-Fluoro-phenyl)-2H-pyrazol-3-yl]-1-(2-morpholin-4-yl-pyridin-4-yl)-1H-pyridazin-4-one] | 1420
N#Cc1cc(-n2ccc(=O)c(-c3ccnn3-c3cccc(F)c3)n2)ccn1 [Example 44, 4-{3-[2-(3-Fluoro-phenyl)-2H-pyrazol-3-yl]-4-oxo-4H-pyridazin-1-yl}-pyridine-2-carbonitrile] | 2290
O=c1ccn(-c2ccncc2)nc1-c1ccnn1-c1cccc2ncccc12 [Example 22, 1-Pyridin-4-yl-3-(2-quinolin-5-yl-2H-pyrazol-3-yl)-1H-pyridazin-4-one] | 35
O=c1ccn(-c2ccncc2)nc1-c1ccnn1-c1cccc(F)c1F [Example 29, 3-[2-(2,3-Difluoro-phenyl)-2H-pyrazol-3-yl]-1-pyridin-4-yl-1H-pyridazin-4-one] | 219
O=C(O)c1cccc(-n2nccc2-c2nn(-c3ccncc3)ccc2=O)c1 [Example 5, 3-[5-(4-Oxo-1-pyridin-4-yl-1,4-dihydro-pyridazin-3-yl)-pyrazol-1-yl]-benzoic acid] | 899
O=c1ccn(-c2ccnc(O)c2)nc1-c1ccnn1-c1ccc2c(c1)OCCO2 [Example 46, 3-[2-(2,3-Dihydro-benzo[1,4]dioxin-6-yl)-2H-pyrazol-3-yl]-1-(2-hydroxy-pyridin-4-yl)-1H-pyridazin-4-one] | 57
COc1cc(-n2ccc(=O)c(-c3ccnn3-c3cccc(F)c3)n2)ccn1 [Example 40, 3-[2-(3-Fluoro-phenyl)-2H-pyrazol-3-yl]-1-(2-methoxy-pyridin-4-yl)-1H-pyridazin-4-one] | 414
Cc1cc(-n2ccc(=O)c(-c3ccnn3-c3ccccc3F)n2)ccn1 [Example 93, 3-[2-(2-Fluoro-phenyl)-2H-pyrazol-3-yl]-1-(2-methyl-pyridin-4-yl)-1H-pyridazin-4-one] | 206
O=c1ccn(-c2ccnc(Cl)c2)nc1-c1ccnn1-c1ccnc2ccc(F)cc12 [Example 55, 1-(2-Chloro-pyridin-4-yl)-3-[2-(6-fluoro-quinolin-4-yl)-2H-pyrazol-3-yl]-1H-pyridazin-4-one] | 122
O=c1ccn(-c2ccncc2)nc1-c1ccnn1-c1cccc2cccnc12 [Example 26, 1-Pyridin-4-yl-3-(2-quinolin-8-yl-2H-pyrazol-3-yl)-1H-pyridazin-4-one] | 806
O=c1ccn(-c2ccnc(Cl)c2)nc1-c1ccnn1-c1ccccc1F [Example 63, 1-(2-Chloro-pyridin-4-yl)-3-[2-(2-fluoro-phenyl)-2H-pyrazol-3-yl]-1H-pyridazin-4-one] | 78
Cc1cncc(-n2ccc(=O)c(-c3ccnn3-c3ccc4c(c3)OCCO4)n2)c1 [Example 36, 3-[2-(2,3-Dihydro-benzo[1,4]dioxin-6-yl)-2H-pyrazol-3-yl]-1-(5-methyl-pyridin-3-yl)-1H-pyridazin-4-one] | 71
O=c1ccn(-c2cncc3ccccc23)nc1-c1ccnn1-c1ccccc1F [Example 65, 3-[2-(2-Fluoro-phenyl)-2H-pyrazol-3-yl]-1-isoquinolin-4-yl-1H-pyridazin-4-one] | 144
O=c1ccn(-c2ccnc(Cl)c2)nc1-c1ccnn1-c1cccc(Cl)c1 [Example 56, 3-[2-(3-Chloro-phenyl)-2H-pyrazol-3-yl]-1-(2-chloro-pyridin-4-yl)-1H-pyridazin-4-one] | 50

SMILES | IC50 [nM]
CS(=O)(=O)c1cc(-n2ccc(=O)c(-c3ccnn3-c3cccc4ccccc34)n2)ccn1 [Example 16, 1-(2-Methanesulfonyl-pyridin-4-yl)-3-(2-naphthalen-1-yl-2H-pyrazol-3-yl)-1H-pyridazin-4-one] | 15
O=c1ccn(-c2ccnc(Cl)c2)nc1-c1ccnn1-c1ccnc2ccccc12 [Example 54, 1-(2-Chloro-pyridin-4-yl)-3-(2-quinolin-4-yl-2H-pyrazol-3-yl)-1H-pyridazin-4-one] | 66
O=c1ccn(-c2ccnc(Cl)c2)nc1-c1ccnn1-c1ccnc(Cl)c1 [Example 57, 1-(2-Chloro-pyridin-4-yl)-3-[2-(2-chloro-pyridin-4-yl)-2H-pyrazol-3-yl]-1H-pyridazin-4-one] | 1540
O=c1ccn(-c2ccncc2)nc1-c1ccnn1-c1ccc2c(c1)OCCO2 [Example 15, 3-[2-(2,3-Dihydro-benzo[1,4]dioxin-6-yl)-2H-pyrazol-3-yl]-1-pyridin-4-yl-1H-pyridazin-4-one] | 80
N#Cc1cccc(-n2nccc2-c2nn(-c3ccncc3)ccc2=O)c1 [Example 3, 3-[5-(4-Oxo-1-pyridin-4-yl-1,4-dihydro-pyridazin-3-yl)-pyrazol-1-yl]-benzonitrile] | 319
O=c1ccn(-c2ccnc(Cl)c2)nc1-c1ccnn1-c1ccnc2ccc(Cl)cc12 [Example 62, 1-(2-Chloro-pyridin-4-yl)-3-[2-(6-chloro-quinolin-4-yl)-2H-pyrazol-3-yl]-1H-pyridazin-4-one] | 154
Cc1cc(-n2ccc(=O)c(-c3ccnn3-c3cccc4ncccc34)n2)ccn1 [Example 83, 1-(2-Methyl-pyridin-4-yl)-3-(2-quinolin-5-yl-2H-pyrazol-3-yl)-1H-pyridazin-4-one] | 134
O=c1ccn(-c2ccnc(Cl)c2)nc1-c1ccnn1-c1cccc2cnccc12 [Example 59, 1-(2-Chloro-pyridin-4-yl)-3-(2-isoquinolin-5-yl-2H-pyrazol-3-yl)-1H-pyridazin-4-one] | 220
O=c1ccn(-c2cncc(Cl)c2)nc1-c1ccnn1-c1ccnc2ccc(F)cc12 [Example 52, 1-(5-Chloro-pyridin-3-yl)-3-[2-(6-fluoro-quinolin-4-yl)-2H-pyrazol-3-yl]-1H-pyridazin-4-one] | 177
N#Cc1cc(-n2ccc(=O)c(-c3ccnn3-c3ccccc3F)n2)ccn1 [Example 96, 4-{3-[2-(2-Fluoro-phenyl)-2H-pyrazol-3-yl]-4-oxo-4H-pyridazin-1-yl}-pyridine-2-carbonitrile] | 308
O=c1ccn(-c2cnc3ccccc3c2)nc1-c1ccnn1-c1ccccc1F [Example 78, 3-[2-(2-Fluoro-phenyl)-2H-pyrazol-3-yl]-1-quinolin-3-yl-1H-pyridazin-4-one] | 38
O=c1ccn(-c2cncc(Cl)c2)nc1-c1ccnn1-c1ccnc2ccc(Cl)cc12 [Example 61, 1-(5-Chloro-pyridin-3-yl)-3-[2-(6-chloro-quinolin-4-yl)-2H-pyrazol-3-yl]-1H-pyridazin-4-one] | 220
Cc1ccc(-n2nccc2-c2nn(-c3ccncc3)ccc2=O)cc1 [Example 11, 1-Pyridin-4-yl-3-(2-p-tolyl-2H-pyrazol-3-yl)-1H-pyridazin-4-one] | 103
Cc1cc(-n2nccc2-c2nn(-c3ccc(Cl)nc3)ccc2=O)ccn1 [Example 88, 1-(6-Chloro-pyridin-3-yl)-3-[2-(2-methyl-pyridin-4-yl)-2H-pyrazol-3-yl]-1H-pyridazin-4-one] | 1130
O=c1ccn(-c2ccnc(C(F)(F)F)c2)nc1-c1ccnn1-c1cccc(Cl)c1 [Example 95, 3-[2-(3-Chloro-phenyl)-2H-pyrazol-3-yl]-1-(2-trifluoromethyl-pyridin-4-yl)-1H-pyridazin-4-one] | 73
